Reference: patent US10155021B2, “Antimicrobial 4-oxoquinolizines” (Emergent Product Development Gaithersburg Inc., priority 2011, dated 2018)
≈ marks a conversion by molar mass, not a printed value. Read-outs that look alike come from different tables or passages of the source.

How the values were obtained:
[1] = tested on: P. aeruginosa 143-3-03; experiment: MIC, panel of quinolone-resistant strains (CLSI); assay type: cell-based; settings: Pseudomonas aeruginosa, 143303; CIP I, POL R
[2] = tested on: A. baumannii A401; experiment: MIC without and with sub-inhibitory polymyxin B (Example 4); assay type: cell-based, Acinetobacter baumannii; settings: Acinetobacter baumannii, A401, A baumannii A 401, without polymyxin B, read-out: MIC without PB
[3] = tested on: Acinetobacter sp. (H064200250); experiment: Preliminary MBC without and with sub-inhibitory polymyxin B (Example 4); assay type: cell-based; settings: Acinetobacter, without polymyxin B, preliminary MBC, read-out: MBC without PB
Procedure, shortened: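 Incubation 18-20 h, 37° C. MBC = lowest conc. with ~90% fewer colonies than positive control (single/no colonies).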

[4] = tested on: A. baumannii A472; experiment: MIC without and with sub-inhibitory polymyxin B (Example 4); assay type: cell-based, Acinetobacter baumannii; settings: for MIC: Acinetobacter baumannii, A472, A. baumannii A472, without polymyxin B, read-out: MIC without PB
[5] = tested on: A. baumannii ATCC 19606; experiment: as above; assay type: cell-based, Acinetobacter baumannii; settings: Acinetobacter baumannii
[6] = tested on: A. baumannii J2; experiment: Preliminary MBC without and with sub-inhibitory polymyxin B (Example 4); assay type: cell-based, Acinetobacter baumannii; settings: Acinetobacter baumannii, J2, A. baumannii J2, without polymyxin B, preliminary MBC, read-out: MBC without PB
[7] = tested on: E. coli CTX-M-15; experiment: MIC, panel of quinolone-resistant strains (CLSI); assay type: cell-based; settings: Escherichia coli, CTXM15; CIP R, ESBL
[8] = tested on: E. coli 2906; experiment: MIC, panel of quinolone-resistant strains (CLSI); assay type: cell-based; settings: Escherichia coli, CIP R
[9] = tested on: Pseudomonas ssp PER-1; experiment: MIC, panel of quinolone-resistant strains (CLSI); assay type: cell-based, Pseudomonas spp; settings: PER1, CIP R, ESBL
[10] = tested on: A. baumannii A 401; experiment: MIC determination for Acinetobacter strains (Example 3); assay type: cell-based; settings: A401, LEV R, CIP R, AMK R, TET R
[11] = tested on: Acinetobacter sp. (H064200250); experiment: MIC without and with sub-inhibitory polymyxin B (Example 4); assay type: cell-based; settings: Acinetobacter, without polymyxin B
[12] = tested on: Klebsiella ssp KPC-3; experiment: MIC, panel of quinolone-resistant strains (CLSI); assay type: cell-based, Klebsiella spp; settings: KPC3, CIP R, ESBL
[13] = tested on: A. baumannii J2; experiment: MIC without and with sub-inhibitory polymyxin B (Example 4); assay type: cell-based, Acinetobacter baumannii; settings: Acinetobacter baumannii, J2, A. baumannii J2, without polymyxin B, read-out: MIC without PB
[14] = tested on: P. aeruginosa 1388-3-02; experiment: MIC, panel of quinolone-resistant strains (CLSI); assay type: cell-based; settings: Pseudomonas aeruginosa, 1388302; CIP R, POL R
[15] = tested on: A. baumannii A489; experiment: MIC without and with sub-inhibitory polymyxin B (Example 4); assay type: cell-based, Acinetobacter baumannii; settings: Acinetobacter baumannii, A489, A. baumannii A489, without polymyxin B, read-out: MIC without PB
[16] = tested on: A. baumannii A472; experiment: MIC determination for Acinetobacter strains (Example 3); assay type: cell-based; settings: LEV R, CIP R, MRP I, IMP I, AMK R, TET R
[17] = tested on: resistant strains of A. baumannii and one strain of Acinetobacter sp.; experiment: MIC without and with sub-inhibitory polymyxin B, whole panel / MIC ranges (Example 4; also strains not listed separately); assay type: cell-based; settings: for MIC: Acinetobacter baumannii
[18] = tested on: A. baumannii A390; experiment: Preliminary MBC without and with sub-inhibitory polymyxin B (Example 4); assay type: cell-based, Acinetobacter baumannii; settings: Acinetobacter baumannii, A390, A. baumannii A390; without polymyxin B; preliminary MBC; 1st experiment; read-out: MBC without PB
[19] = tested on: A. baumannii A489; experiment: as above; assay type: cell-based, Acinetobacter baumannii; settings: Acinetobacter baumannii, A489, A. baumannii A489, without polymyxin B, 1st experiment, read-out: MBC without PB
[20] = tested on: A. baumannii A401; experiment: as above; assay type: cell-based, Acinetobacter baumannii; settings: Acinetobacter baumannii, A401, A baumannii A 401, without polymyxin B, preliminary MBC, read-out: MBC without PB
[21] = tested on: A. baumannii A473; experiment: MIC without and with sub-inhibitory polymyxin B (Example 4); assay type: cell-based, Acinetobacter baumannii; settings: Acinetobacter baumannii, A473, A. baumannii A473, without polymyxin B, read-out: MIC without PB
[22] = tested on: A. baumannii A329; experiment: MIC determination for Acinetobacter strains (Example 3); assay type: cell-based; settings: LEV R, CIP R, MRP R, IMP R, AMK R, TET R
[23] = tested on: A. baumannii A329; experiment: MIC without and with sub-inhibitory polymyxin B (Example 4); assay type: cell-based, Acinetobacter baumannii; settings: Acinetobacter baumannii, A329, A. baumannii A329; without polymyxin B; 1st experiment; read-out: MIC without PB
[24] = tested on: A. baumannii A329; experiment: Preliminary MBC without and with sub-inhibitory polymyxin B (Example 4); assay type: cell-based, Acinetobacter baumannii; settings: Acinetobacter baumannii, A329, A. baumannii A329, without polymyxin B, read-out: MBC without PB
[25] = Acinetobacter spp. H064200250 (OXA51), 2nd experiment
[26] = Acinetobacter spp. H064200250, 1st experiment
[27] = ATCC19606, A. baumannii ATCC 19606, without polymyxin B, 2nd experiment, visual reading, read-out: MIC without PB
[28] = Acinetobacter spp. H064200250 (OXA51), 2nd experiment, visual reading, read-out: MIC without PB
[29] = Acinetobacter spp. H064200250, 1st experiment, read-out: MIC without PB
[30] = A. baumannii A14, without polymyxin B, 1st experiment, read-out: MIC without PB
[31] = read-out: MIC range without PB 01-10-2008 n = 8, without polymyxin B, 1st experiment, 8 strains
[32] = without polymyxin B, 2nd experiment, 11 strains, read-out: MIC range without PB 14-10-2008 n = 11

Structure (SMILES) | MIC [1] [µg/mL] | MBC [3, 25] [µg/mL] | MBC [3, 26] [µg/mL] | MIC [5, 27] [µg/mL] | MBC ([6]; 2nd experiment) [µg/mL] | MIC [7] [µg/mL] | MIC [8] [µg/mL] | MIC [9] [µg/mL] | MIC [11, 28] [µg/mL] | MIC [11, 29] [µg/mL] | MIC [12] [µg/mL] | MIC ([13]; 2nd experiment, visual reading) [µg/mL] | MIC [14] [µg/mL] | MIC ([15]; 2nd experiment, visual reading) [µg/mL] | MIC [17, 30] [µg/mL] | MIC [17, 31] [µg/mL] | MIC [17, 32] [µg/mL] | MBC [19] [µg/mL] | also measured
Cc1c(-c2ccc(N)cc2)c(F)cn2c(=O)c(C(=O)O)cc(C3CC3)c12 [Compound 7, 8-(4-amino-phenyl)-1-cyclopropyl-7-fluoro-9-methyl-4-oxo-quinolizine-3-carboxylic acid] | 4 (≈ 11.4 µM) | 8 (≈ 22.7 µM) | 4 (≈ 11.4 µM) | 0.25 (≈ 0.709 µM) | 4 (≈ 11.4 µM) | 32 (≈ 90.8 µM) | 32 (≈ 90.8 µM) | 16 (≈ 45.4 µM) | 16 (≈ 45.4 µM) | 8 (≈ 22.7 µM) | 16 (≈ 45.4 µM) | 4 (≈ 11.4 µM) | 16 (≈ 45.4 µM) | 8 (≈ 22.7 µM) | 32 (≈ 90.8 µM) | 2 to 32 (≈ 5.68 to 90.8 µM) | 2 to 16 (≈ 5.68 to 45.4 µM) | 4 (≈ 11.4 µM) | MIC ([2]; 1st experiment): 4 µg/mL (≈ 11.4 µM); MIC ([2]; 2nd experiment, visual reading): 8 µg/mL (≈ 22.7 µM); MIC ratio without/with polymyxin B ([4]; A. baumannii A472, ratio MIC without PB to MIC + PB, PB […], 2nd experiment): ≥ 256 µg/mL; MIC ([4]; 1st experiment): 4 µg/mL (≈ 11.4 µM); MIC ([4]; 2nd experiment, visual reading): 8 µg/mL (≈ 22.7 µM); MIC [10]: 4 µg/mL (≈ 11.4 µM); MIC ([11]; Acinetobacter spp. H064200250 (OXA51), 2nd experiment, MIC read with alamar blue, read-out: MIC without PB, read with alamar blue): 8 µg/mL (≈ 22.7 µM); MIC ([15]; 1st experiment): 8 µg/mL (≈ 22.7 µM); MIC [16]: 4 µg/mL (≈ 11.4 µM); MBC [18]: 4 µg/mL (≈ 11.4 µM); MBC ([20]; 2nd experiment): 8 µg/mL (≈ 22.7 µM); MBC ([20]; 1st experiment): 4 µg/mL (≈ 11.4 µM); MIC ([21]; 1st experiment): 4 µg/mL (≈ 11.4 µM); MIC ([21]; 2nd experiment, visual reading): 4 µg/mL (≈ 11.4 µM)
C[C@H]1COc2c(N3CCN(C)CC3)c(F)cc3c(=O)c(C(=O)O)cn1c23 [Levofloxacin, reference compound] | 8 (≈ 22.1 µM) | 16 (≈ 44.3 µM) | 16 (≈ 44.3 µM) | 1 (≈ 2.77 µM) | 32 (≈ 88.6 µM) | 16 (≈ 44.3 µM) | 32 (≈ 88.6 µM) | 32 (≈ 88.6 µM) | 16 (≈ 44.3 µM) | 16 (≈ 44.3 µM) | > 128 | 32 (≈ 88.6 µM) | 32 (≈ 88.6 µM) | 32 (≈ 88.6 µM) | 32 (≈ 88.6 µM) | 8 to 32 (≈ 22.1 to 88.6 µM) | 4 to 32 (≈ 11.1 to 88.6 µM) | 32 (≈ 88.6 µM) | MIC ([5]; ATCC19606, A. baumannii ATCC 19606, without polymyxin B, 1st experiment, read-out: MIC without PB): 1 µg/mL (≈ 2.77 µM); MIC ([5]; ATCC19606, read-out: MIC +0.06 μg/ml PB, read with alamar blue, A. baumannii ATCC 19606, +0.06 μg/ml polymyxin B, 2nd experiment, MIC read with alamar blue): 0.5 µg/mL; MBC ([6]; 1st experiment): 32 µg/mL (≈ 88.6 µM); MIC [22]: 32 µg/mL (≈ 88.6 µM); MIC [23]: 32 µg/mL (≈ 88.6 µM); MBC ([24]; 1st experiment): 32 µg/mL (≈ 88.6 µM); MBC ([24]; 2nd experiment): 32 µg/mL (≈ 88.6 µM); MIC ([13]; 1st experiment): 32 µg/mL (≈ 88.6 µM); fold greater activity (fold lower MIC) in presence of polymyxin B compared to without polymyxin B [17]: not significantly affected; MIC ([17]; A. baumannii A14, without polymyxin B, 2nd experiment, visual reading, read-out: MIC without PB): 32 µg/mL (≈ 88.6 µM); MIC ([17]; NCTC13301, A. baumannii NCTC 13301, without polymyxin B, 1st experiment, read-out: MIC without PB): 32 µg/mL (≈ 88.6 µM); MIC ([17]; NCTC13301, A. baumannii NCTC 13301, without polymyxin B, 2nd experiment, visual reading, read-out: MIC without PB): 32 µg/mL (≈ 88.6 µM)
